Experimental data reported in patent US11318154B2 (priority 2019, dated 2022).

Legend:
C. difficile VPI 10463 = test: C. difficile mice model (spore challenge), survival; assay type: in vivo; details: C57BL/6 mice, 1×10^5 C. difficile VPI10463 spores by gavage, daily injection
Description: To further determine the in vivo protective effect of glycyrrhizin on mice, a C. difficile mice model was established particularly the one as described in Guo, S. et al, (2015), Vaccine 33, 1586-1595. Briefly, C57BL/6 mice were given water mixed with a mixture of kanamycin (Sigma, MO) (0.4×10^−3 mg/L), gentamicin (Sigma, MO) (0.035×10^−3 mg/L), colistin (Sigma, MO) (850 U/mL), metronidazole (Sigma, MO) (0.215×10^−3 mg/L), and vancomycin (Sigma, MO) (0.045×10^−3 mg/L) for 3 days. All mice were then provided with regular autoclaved water for 2 days and administered with a single dose of clindamycin (Sigma, MO) (10 mg/kg) intraperitoneally 1 day before the C. difficile challenge. Mice were injected with glycyrrhizin daily on or before the day of C. difficile VPI 10463 spores challenge. All mice were then challenged with 1×10^5 of prepared C. difficile (strain VPI10463) spores by gavage feeding. The mice were intensively monitored daily after challenge for the presence and severity of diarrhea and other symptoms of illness or mortality. Body weight was measured once a day at the same time each day. Mice judged to be in a moribund state were euthanized by carbon dioxide.

[1] = tested on: TcdB-induced disruption in colon epithelium; test: Mice colon ligation loop model with TcdB injection, H&E histological scoring; assay type: in vivo, C57BL/6 mice; details: intraperitoneal pre-treatment daily for two days, 10 μg TcdB in loop, 8 h
Description: The inventors used a mice colon ligation loop model to mimic C. difficile infection as TcdB is released into the lumen of the colon during C. difficile infection. All procedures were performed according to the animal protocol approved by the Cornell University IACUC (2017-0112). 6-8 weeks old of C57BL/6 mice were administrated with glycyrrhizin acid (50 mg/kg) daily via intraperitoneal injection two days before surgery. After overnight fasting, mice were anaesthetized and dissected via a midline laparotomy. A length of about 2 cm colon tissue was ligated and either saline or TcdB was injected into ligated loop for treatment. Mice were sutured and allowed to recover. After 8 hours, mice were euthanized and the ligated colon segments were excised and subjected to H&E staining. HE scoring was blindly assessed by a pathologist.

In the case of CC1(C)[C@@H](O[C@H]2O[C@H](C(=O)O)[C@@H](O)[C@H](O)[C@H]2O[C@@H]2O[C@H](C(=O)O)[C@@H](O)[C@H](O)[C@H]2O)CC[C@]2(C)[C@H]3C(=O)C=C4[C@@H]5C[C@@](C)(C(=O)O)CC[C@]5(C)CC[C@@]4(C)[C@]3(C)CC[C@@H]12 [glycyrrhizin], the “survival at the end of experiment” value (C. difficile VPI 10463) is reported as 100% and the “epithelial layer damage of ligated colon tissue (histology)” value [1] is reported as “less epithelial layer damages”.
